Converted amounts (≈) assume the structure as drawn.
Assays:
[1] = physchem; conditions: buffer, pH 7.4
[2] = Permeability of the compound at pH 7.4 by artificial membrane permeability assay; assay type: ADME; conditions: PAMPA, read-out: permeability
[3] = Solubility of the compound in pH 6.5 FaSSIF at […] measured after 16 hrs by HPLC analysis; assay type: physicochemical
[4] = Volume of distribution at steady state in Beagle dog at 0.5 mg/kg, iv administered as 1 hr infusion on day 1 and day 7 to achieve a target dose of 1 mg/kg by LC-MS/MS analysis; assay type: ADME, organism-based, Canis lupus familiaris; conditions: in vivo, dose 0.5-1 mg/kg, time 7 day, read-out: Vdss
[5] = Half life in Wistar Han rat at 1 mg/kg, iv administered as 1 hr infusion or 3 mg/kg, po administered via gavage by LC-MS/MS analysis; assay type: ADME, organism-based; conditions: in vivo
[6] = Oral bioavailability in Beagle dog; assay type: ADME, organism-based, Canis lupus familiaris; conditions: in vivo
[7] = Clearance in Beagle dog at 0.5 mg/kg, iv administered as 1 hr infusion on day 1 and day 7 to achieve a target dose of 1 mg/kg by LC-MS/MS analysis; assay type: ADME, organism-based, Canis lupus familiaris; conditions: in vivo, dose 0.5-1 mg/kg, time 7 day
[8] = Clearance in Wistar Han rat at 1 mg/kg, iv administered as 1 hr infusion or 3 mg/kg, po administered via gavage by LC-MS/MS analysis; assay type: ADME, organism-based; conditions: in vivo
[9] = Intrinsic clearance in human cryopreserved pooled hepatocytes at 0.5 uM measured up to 120 mins by LC-MS/MS analysis; assay type: ADME, tissue-based, Hepatocyte; conditions: 2 h
[10] = Volume of distribution at steady state in Wistar Han rat at 1 mg/kg, iv administered as 1 hr infusion or 3 mg/kg, po administered via gavage by LC-MS/MS analysis; assay type: ADME, organism-based; conditions: in vivo, read-out: Vdss
[11] = Oral bioavailability in Wistar Han rat at 3 mg/kg administered via gavage by LC-MS/MS analysis; assay type: ADME, organism-based; conditions: in vivo
[12] = Unbound clearance in Beagle dog at 0.5 mg/kg, iv administered as 1 hr infusion on day 1 and day 7 to achieve a target dose of 1 mg/kg by LC-MS/MS analysis; assay type: ADME, organism-based, Canis lupus familiaris; conditions: in vivo, 168 h, dose 0.5-1 mg/kg, time 7 day
[13] = Intrinsic clearance in Beagle dog cryopreserved pooled hepatocytes at 0.5 uM measured up to 120 mins by LC-MS/MS analysis; assay type: ADME, tissue-based, Canis lupus familiaris, Hepatocyte; conditions: 2 h
[14] = Unbound clearance in Wistar Han rat at 1 mg/kg, iv administered as 1 hr infusion or 3 mg/kg, po administered via gavage by LC-MS/MS analysis; assay type: ADME, organism-based; conditions: in vivo
[15] = Intrinsic clearance in Wistar Han rat cryopreserved pooled hepatocytes at 0.5 uM measured up to 60 mins by LC-MS/MS analysis; assay type: ADME, tissue-based, Hepatocyte; conditions: 1 h
[16] = Half life in Beagle dog at 0.5 mg/kg, iv administered as 1 hr infusion on day 1 and day 7 to achieve a target dose of 1 mg/kg by LC-MS/MS analysis; assay type: ADME, organism-based, Canis lupus familiaris; conditions: in vivo, dose 0.5-1 mg/kg, time 7 day

Row | SMILES | chromatographic logD [1] | Papp [2] [×10⁻⁶ cm/s] | solubility at 16 h [3] [µg/mL] | further results
1 | CNC(=O)c1cc(C(=O)NC2CC2)cn([C@H](C)c2ccccc2)c1=O | 3.5 | – | – | –
2 | CNC(=O)c1cc(C(=O)NC2CC2)cn(Cc2cccc3[nH]ccc23)c1=O | – | 17.8 | 20 (≈ 54.9 µM) | –
3 | CC(=O)Nc1ccc(C(=O)NCCc2cnc[nH]2)cc1OCc1ccccc1 | 2.2 | – | – | –
4 | CNC(=O)c1cc(C(=O)N[C@H]2[C@@H]3COC[C@@H]32)cc(Cc2cccc3[nH]ccc23)n1 | 3.1 | 16 | 91 (≈ 233 µM) | Vd [4]: 0.9 L/kg; half-life [5]: 42 min; bioavailability [6]: 41%; clearance [7]: 4 mL/min/kg; clearance [8]: 39 mL/min/kg; CLH [9]: < 0.45 mL/min/g; Vd [10]: 1.8 L/kg; bioavailability [11]: 69%; CL free [12]: 19 mL/min/kg; CLH [13]: < 0.65 mL/min/g; CL free [14]: 206 mL/min/kg; CLH [15]: 2.05 mL/min/g; half-life [16]: 150 min
5 | CNC(=O)c1cc(C(=O)N[C@H]2C[C@@H]2C)cc([C@@H](CC#N)c2ccccc2)n1 | 4 | 35.3 | – | –
6 | CNC(=O)c1cc(C(=O)NC2CC2)cc(Cc2cccc3c2CCN3)n1.Cl | 3 | 19 | 953 | half-life [5]: 114 min; clearance [8]: 33 mL/min/kg; CLH [9]: < 0.45 mL/min/g; Vd [10]: 4.1 L/kg; bioavailability [11]: 98%; CLH [13]: < 0.65 mL/min/g; CL free [14]: 73 mL/min/kg; CLH [15]: 0.88 mL/min/g
7 | CNC(=O)c1cc(C(=O)N[C@H]2C[C@@H]2C)cc(C(OC)c2ccccc2)n1 (some centres not stated) | 4.3 | 56 | – | –
8 | CNC(=O)c1cc(C(=O)N[C@H]2[C@@H]3C[C@H](O)C[C@@H]32)cc(Cc2ccccc2)n1 | 3.5 | 15 | 43 (≈ 118 µM) | –
9 | CNC(=O)c1cc(C(=O)N[C@H]2CC[C@H](O)CC2)cc(Cc2ccccc2)n1 | 3.1 | 8.6 | 473 (≈ 1290 µM) | –
10 | CNC(=O)c1cc(C(=O)N[C@H]2C[C@@H]2C)cc(Cc2cccc3[nH]ccc23)n1 | 3 | 18.3 | 127 (≈ 350 µM) | Vd [4]: 1.6 L/kg; half-life [5]: 72 min; bioavailability [6]: 55%; clearance [7]: 13 mL/min/kg; clearance [8]: 18 mL/min/kg; CLH [9]: < 0.45 mL/min/g; Vd [10]: 1.2 L/kg; bioavailability [11]: 48%; CL free [12]: 88 mL/min/kg; CLH [13]: < 0.65 mL/min/g; CL free [14]: 69 mL/min/kg; CLH [15]: 1.06 mL/min/g; half-life [16]: 132 min
11 | CNC(=O)c1cc(C(=O)N[C@H]2[C@@H]3C[C@@H](O)C[C@@H]32)cc(C(OC)c2ccccc2)n1 (some centres not stated) | 2.9 | 5.6 | – | half-life [5]: 42 min; clearance [8]: 57 mL/min/kg; CLH [9]: < 0.45 mL/min/g; Vd [10]: 1.8 L/kg; bioavailability [11]: 77%; CLH [13]: < 0.65 mL/min/g; CL free [14]: 95 mL/min/kg; CLH [15]: < 0.8 mL/min/g
12 | CNC(=O)c1cc(C(=O)N[C@H]2[C@@H]3C[C@@H](O)C[C@@H]32)cc([C@@H](C)c2ccccc2)n1 | 3.6 | 13 | 744 (≈ 1960 µM) | –
13 | CNC(=O)c1cc(C(=O)NC2CC2)cn([C@@H](C)c2ccccc2)c1=O | 3.3 | – | 598 (≈ 1760 µM) | –
14 | CNC(=O)c1cc(C(=O)NC2CC2)cc([C@@H](C)c2ccccc2)n1 | 4.4 | 55.5 | 123 (≈ 380 µM) | –
15 | CNC(=O)c1cc(C(=O)NC2CC2)cc(Cc2cccc3[nH]ccc23)n1 | 3.5 | 30.5 | – | –
16 | CNC(=O)c1cc(C(=O)N[C@H]2[C@@H]3COC[C@@H]32)cc(C(O)c2ccccc2)n1 (some centres not stated) | 2.2 | 2.4 | 473 (≈ 1290 µM) | –
17 | CNC(=O)c1cc(C(=O)NCCC[C@H]2OC[C@H](N)CO2)cc(Cc2ccccc2)n1 | 2.8 | 15 | – | Vd [4]: 2.4 L/kg; half-life [5]: 24 min; bioavailability [6]: 98%; clearance [7]: 42 mL/min/kg; clearance [8]: 31 mL/min/kg; CLH [9]: < 0.45 mL/min/g; Vd [10]: 0.7 L/kg; bioavailability [11]: 28%; CL free [12]: 118 mL/min/kg; CLH [13]: < 0.65 mL/min/g; CL free [14]: 365 mL/min/kg; CLH [15]: 1.04 mL/min/g; half-life [16]: 54 min
18 | CNC(=O)c1cc(C(=O)N[C@H]2[C@@H]3C[C@H](O)C[C@@H]32)cc([C@@H](C)c2ccccc2)n1 | 4.1 | 28 | 572 (≈ 1510 µM) | –
19 | CNC(=O)c1cc(C(=O)NC2CC2)cc([C@H](C)c2ccccc2)n1 | 4.3 | 49 | 182 (≈ 563 µM) | –
20 | CNC(=O)c1cc(C(=O)N[C@H]2[C@@H]3COC[C@@H]32)cc(C(CC#N)c2ccccc2)n1 (some centres not stated) | 3.1 | 20 | 930 (≈ 2380 µM) | half-life [5]: 264 min; clearance [8]: 70 mL/min/kg; CLH [9]: < 0.45 mL/min/g; Vd [10]: 5.9 L/kg; bioavailability [11]: 54%; CLH [13]: < 0.65 mL/min/g; CLH [15]: 1.87 mL/min/g
21 | CNC(=O)c1cccc(Cc2ccccc2)n1 | 4.3 | 77 | 258 (≈ 1140 µM) | –
22 | CNC(=O)c1cc(C(=O)NC2CC2)cc(Cc2cccc3cn[nH]c23)n1 | 2.9 | 20 | – | –
23 | CNC(=O)c1cc(C(=O)N[C@H]2[C@@H]3COC[C@@H]32)cc([C@@H](C)c2ccccc2)n1 | 4.1 | 37 | 117 (≈ 320 µM) | Vd [4]: 1.3 L/kg; half-life [5]: 24 min; bioavailability [6]: 14%; clearance [7]: 44 mL/min/kg; clearance [8]: 52 mL/min/kg; CLH [9]: < 0.45 mL/min/g; Vd [10]: 1.7 L/kg; bioavailability [11]: 39%; CL free [12]: 171 mL/min/kg; CLH [13]: < 0.65 mL/min/g; CL free [14]: 147 mL/min/kg; CLH [15]: 2.03 mL/min/g; half-life [16]: 24 min
24 | CNC(=O)c1cc(C(=O)NC2CC2)cc([C@@H](O)c2ccccc2)n1 | 2.4 | 7.15 | > 1000 | –
25 | CNC(=O)c1cc(C(=O)N[C@H]2C[C@@H]2C)cc([C@@H](CO)c2ccccc2)n1 | 3.3 | 10 | > 1000 | –
26 | CC(=O)Nc1c(F)cc(C(=O)N[C@H]2CC[C@H](O)CC2)cc1O[C@@H](C)c1ccccc1 [GSK046] | 2.8 | – | – | –

Continued, in another order:

Row | chromatographic logD [1] | Papp [2] [×10⁻⁶ cm/s] | solubility at 16 h [3] [µg/mL] | SMILES | further results
27 | 4.6 | 63 | 94 (≈ 291 µM) | CNC(=O)c1cc(C(=O)N[C@H]2C[C@@H]2C)cc(Cc2ccccc2)n1 | –
28 | 2.7 | 21 | – | CNC(=O)c1cc(C(N)=O)cc(Cc2ccccc2)n1 | –
29 | – | 57 | 101 (≈ 324 µM) | CNC(=O)c1cc(C(=O)NC(C)C)cc(Cc2ccccc2)n1 | –
30 | – | – | > 1000 | CNC(=O)c1cc(C(=O)O)cc(Cc2ccccc2)n1 | –
31 | 3.7 | 22 | 173 (≈ 489 µM) | CNC(=O)c1cc(C(=O)NC2CCOCC2)cc(Cc2ccccc2)n1 | –
32 | 3.7 | – | 310 (≈ 1040 µM) | CCNC(=O)c1cc(Cc2ccccc2)nc(C(=O)NC)c1 | –
33 | 3.1 | 20 | > 1000 | CNC(=O)c1cc(Cc2ccccc2)nc(C(=O)NC)c1 | –
34 | 3.9 | 38.5 | 89 (≈ 288 µM) | CNC(=O)c1cc(C(=O)NC2CC2)cc(Cc2ccccc2)n1 | half-life [5]: 18 min; clearance [8]: 12 mL/min/kg; CLH [9]: < 0.87 mL/min/g; Vd [10]: 0.4 L/kg; bioavailability [11]: 29%; CLH [13]: < 1.3 mL/min/g; CL free [14]: 343 mL/min/kg; CLH [15]: 5.3 mL/min/g
35 | 3.1 | 16 | 73 (≈ 224 µM) | CNC(=O)c1cc(C(=O)NC2COC2)cc(Cc2ccccc2)n1 | –
36 | 3.1 | 7.1 | 143 (≈ 391 µM) | CNC(=O)c1cc(C(=O)N[C@H]2[C@@H]3C[C@@H](O)C[C@@H]32)cc(Cc2ccccc2)n1 | –
37 | 2.7 | 7.3 | 194 (≈ 572 µM) | CNC(=O)c1cc(C(=O)N[C@H]2C[C@H](O)C2)cc(Cc2ccccc2)n1 | –
38 | 3.3 | 33 | – | CNC(=O)c1cc(C(=O)N(C)C)cc(Cc2ccccc2)n1 | –
